Assay results as given in US7329401B2, “Cyclooxygenase-2 selective agents useful as imaging probes and related methods” (The Regents of the University of California, priority 2002, dated 2008).

Assays:
[1] = biological target: T1, cyclooxygenase-2 (Mus musculus, UniProt Q05769); assay: Cell-based assay for cyclooxygenase-2 inhibition (PGE2 ELISA, LPS-treated RAW264.7 macrophages); conditions: lipopolysaccharide-treated murine RAW264.7 macrophages
T1 sequence (Q05769 18-604): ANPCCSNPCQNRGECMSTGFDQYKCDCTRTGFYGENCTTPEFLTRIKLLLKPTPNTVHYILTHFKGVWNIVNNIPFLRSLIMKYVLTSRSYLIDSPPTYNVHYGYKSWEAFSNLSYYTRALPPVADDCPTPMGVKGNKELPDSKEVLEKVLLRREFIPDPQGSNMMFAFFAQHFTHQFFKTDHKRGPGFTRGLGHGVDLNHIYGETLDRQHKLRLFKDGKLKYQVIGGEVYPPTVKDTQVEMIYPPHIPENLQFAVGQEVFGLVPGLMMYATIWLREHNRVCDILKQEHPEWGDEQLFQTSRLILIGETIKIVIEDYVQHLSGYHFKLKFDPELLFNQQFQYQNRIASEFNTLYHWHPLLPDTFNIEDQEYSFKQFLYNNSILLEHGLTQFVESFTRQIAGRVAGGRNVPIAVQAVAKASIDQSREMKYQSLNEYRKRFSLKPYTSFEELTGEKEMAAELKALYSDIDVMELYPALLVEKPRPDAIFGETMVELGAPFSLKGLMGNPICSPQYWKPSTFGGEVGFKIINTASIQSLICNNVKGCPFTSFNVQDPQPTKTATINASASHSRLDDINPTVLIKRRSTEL
Procedure: RAW 264.7 cells are a murine macrophage cell line that can be induced to express cyclooxygenase-2 by exposure to bacterial endotoxin/lipopolysaccharide (LPS). For this assay, RAW964.7 cells were plated at 90% confluence in 12-well cell culture plates. After attachment, cells were switched to 1 mL of endotoxin-free Dulbecco's Modified Eagle's Medium with high glucose and 0.5% calf serum overnight. Thirty minutes prior to induction of cyclooxygenase-2 expression, varying concentrations of the test compound (ranging from 20 nM to 0.3 nM) were added. NS-398 (a known cyclooxygenase-2 inhibitor) was used at 10 μM, as a control. Inhibitors or vehicle were added to the cultures by removing the existing culture medium and adding fresh medium containing inhibitor or vehicle. Cells were treated with LPS (final concentration, 10 ng per mL) to induce cyclooxygenase-2 expression. After eight hours, the media were collected from the cultures and frozen on dry ice. Cells were harvested and lysed. Protein determinations were performed to normalize PGE2 values to total protein in each well. PGE2 ELISA assays were performed with a commercial kit (Amersham).
The assay was carried out using lipopolysaccharide-treated murine RAW264.7 macrophages as described previously.

**Q.** What does the source list for `Cc1onc(-c2ccccc2)c1-c1ccc(S(N)(=O)=O)c(F)c1` [compound 4, 2-Fluoro-4-(5-methyl-3-phenylisoxazol-4-yl)benzenesulfonamide]?
**A.** IC50 [1]: 1.25 to 2.5 nM; melting point: 192 to 195 °C (dec.)
